The target of assay [1] is T1, Sphingomyelin Synthase 2 (SMS2 pure enzyme) (Homo sapiens, UniProt Q8NHU3).
T1 construct: Yu, Cao research group of National Protein Science Center (Shanghai)
T1 sequence (Q8NHU3 1-365): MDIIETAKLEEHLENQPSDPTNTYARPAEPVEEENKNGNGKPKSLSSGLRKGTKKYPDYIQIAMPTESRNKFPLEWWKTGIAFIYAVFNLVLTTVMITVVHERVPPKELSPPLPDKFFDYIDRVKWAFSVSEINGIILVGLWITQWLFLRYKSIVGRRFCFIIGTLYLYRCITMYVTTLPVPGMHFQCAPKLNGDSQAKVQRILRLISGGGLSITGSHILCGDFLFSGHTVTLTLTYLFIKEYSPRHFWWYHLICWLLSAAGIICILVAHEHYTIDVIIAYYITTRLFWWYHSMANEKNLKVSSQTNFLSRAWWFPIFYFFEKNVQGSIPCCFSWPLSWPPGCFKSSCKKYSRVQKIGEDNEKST
Briefly: In vitro SMS2 pure enzyme inhibition, HPLC fluorogenic quantitative detecting method (C6-NBD-Ceramide to C6-NBD-SM). The class given is biochemical. As to conditions: for Selectivity ratio: SMS1 IC50 relative to SMS2 IC50; for pIC50: SMS2 pure enzyme, five concentrations, three parallel groups, experimental value. Here is the method:
Add […] SMS2 pure enzyme DDM solution (total protein content 1.5 μg/μL), 1 μL test compound in DMSO solution or blank DMSO solution, 79.7 μL DDM buffer to 1.5 mL Eppendorf tube, vortex 30 seconds, let stand at room temperature for 5 min. Then add 20 μL DDM buffer containing 1 μL DMPC in ethanol (40 mmol/L) and 1 μL C6-NBD-Ceramide in DMSO (1.16 mmol/L). After vortexing for 30 seconds, Incubate for 0.5 h under water bath at 37° C. Then remove, add 200 μL of absolute ethanol, and vortex for 30 seconds. Take out 200 μL of the mixture and store it at 4° C. for high performance liquid chromatography analysis.
(§1) Using the same HPLC fluorogenic quantitative detecting method as reference (Xiaodong Deng; Hong Sun; et al. Analytical Letters, 2012, 45:12, 1581-1589) to analyses samples obtained above. Analysize and record peak areas of C6-NBD-SM (Asm) and C6-NBD-Ceramide (Acer) of each sample from blank group, positive control group (compound D2) and under tested compound group. Calculate inhibition rate from the formula below: […]
The DMSO stock solution of under tested compound (6 mM) was diluted stepwise into five concentration gradient. 1 μL solution of each concentration was added into the trial system to prepare samples with the method mentioned in the first step of application case 15. The Asm values of the five concentration solution of tested compound were measured (compound D2 is a positive control), and the inhibition rate under the five concentration were calculated and fitted to obtain median inhibitory concentration (IC50). Each compound was measured three parallel groups. SMS2 median inhibitory concentration and SMS1 single inhibitory concentration (50 μM) of Scheme I-1˜I-38, and SMS1 median inhibitory concentration of some compounds are listed below in Table 1.

Assay [2] deals with T2, Sphingomyelin Synthase 1 (SMS1 pure enzyme) (Homo sapiens, UniProt Q86VZ5).
T2 construct: Yu, Cao research group of National Protein Science Center (Shanghai)
T2 sequence (Q86VZ5 1-413): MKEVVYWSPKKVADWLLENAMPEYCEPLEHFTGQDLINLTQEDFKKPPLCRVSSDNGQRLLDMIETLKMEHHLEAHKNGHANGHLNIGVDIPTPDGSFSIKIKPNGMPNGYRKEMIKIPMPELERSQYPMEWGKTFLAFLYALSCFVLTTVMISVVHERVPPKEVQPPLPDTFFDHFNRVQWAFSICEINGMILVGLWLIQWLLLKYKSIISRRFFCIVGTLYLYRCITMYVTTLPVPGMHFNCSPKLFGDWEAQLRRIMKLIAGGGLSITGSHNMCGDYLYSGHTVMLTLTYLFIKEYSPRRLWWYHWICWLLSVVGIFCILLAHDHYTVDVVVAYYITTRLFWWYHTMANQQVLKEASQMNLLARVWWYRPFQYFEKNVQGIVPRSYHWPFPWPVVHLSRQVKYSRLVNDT
Briefly: In vitro SMS1 pure enzyme inhibition, HPLC fluorogenic quantitative detecting method. The class given is biochemical.
Description: Referring to the above SMS2 inhibitory activity detection method, and using SMS1 pure enzyme instead of SMS2 pure enzyme for corresponding operation.
as §1
Part 4. Determination of SMS1 Median Inhibitory Concentration (IC50) and SMS1 Single Concentration (50 μM) Inhibitory Concentration of Alkoxybenzeno Five- or Six-Member Heterocyclic Amines (Scheme I-1˜I-38)
The experiment can be carried out with the corresponding concentration according to the operation similar to the determination of the median inhibitory concentration (IC50) of SMS2.

pIC50: −log10 of the molar value.

For `CCc1ccccc1COc1cccc2onc(Nc3cccnc3)c12` [Scheme I-1, 4-((2-ethylbenzyl)oxy)-N-(pyridin-3-yl)benzo[d]isoxazol-3-amine], in assay [1], the Selectivity ratio was 342 and the pIC50 (commonly the IC50 on a negative log10 scale, so that one unit is a factor of ten) was 6.93. The pIC50 in assay [2] is 4.40. Moreover, in assay [2] (single concentration 50 μM), the inhibition – broadly, the change of the read-out against control, counted positive when it falls – at 50 µM is 65%.
As for `Fc1ccc(Cl)c(COc2cccc3onc(Nc4cccnc4)c23)c1` [Scheme I-2, 4-((2-Chloro-5-fluorobenzyl)oxy)-N-(pyridin-3-yl)benzo[d]-isoxazol-3-amine], the Selectivity ratio in assay [1] is 539. Also, the figures for the negative logarithm of the IC50 (pIC50) in assay [1] and in assay [2] were 6.99 and 4.26, respectively. In addition, the inhibition at 50 µM in assay [2] (single concentration 50 μM) stood at 44%.
With `FC(F)(F)Oc1ccc(Cl)cc1COc1cccc2onc(Nc3cccnc3)c12` [Scheme I-3, 4-((5-chloro-2-(trifluoromethoxy)benzyl)oxy)-N-(pyridin-3-yl)benzo[d]isoxazol-3-amine], the pIC50 in assay [1] was 5.70. Besides, in assay [2] (single concentration 50 μM), the inhibition at 50 µM is 49%.
In assay [1], `Fc1ccccc1COc1cccc2onc(Nc3cccnc3)c12` [Scheme I-4, 4-((2-fluorobenzyl)oxy)-N-(pyridin-3-yl)benzo[d]isoxazol-3-amine] showed a pIC50 of 6.18. In assay [2] (single concentration 50 μM), the inhibition at 50 µM turned out to be 6%.
The matching figures for `Fc1cccc(COc2cccc3onc(Nc4cccnc4)c23)c1` [Scheme I-5, 4-((3-fluorobenzyl)oxy)-N-(pyridin-3-yl)benzo[d]isoxazol-3-amine]: 6.81 and 6%.
The corresponding values for `Fc1ccc(COc2cccc3onc(Nc4cccnc4)c23)cc1` [Scheme I-6, 4-((4-fluorobenzyl)oxy)-N-(pyridin-3-yl)benzo[d]isoxazol-3-amine] are 5.82 and 7%.
For `Clc1ccccc1COc1cccc2onc(Nc3cccnc3)c12` [Scheme I-7, 4-((2-chlorobenzyl)oxy)-N-(pyridin-3-yl)benzo[d]isoxazol-3-amine], in assay [1], the Selectivity ratio turned out to be 292 and the pIC50 is 6.57. The same compound gave a pIC50 in assay [2] of 4.10. Besides, the “SMS1 Inhibition (50 μM)” value in assay [2] (single concentration 50 μM) came to 41%.
Consider `Clc1cccc(COc2cccc3onc(Nc4cccnc4)c23)c1` [Scheme I-8, 4-((3-chlorobenzyl)oxy)-N-(pyridin-3-yl)benzo[d]isoxazol-3-amine], for which, in assay [1], the Selectivity ratio was found to be 840. In addition, the negative logarithm of the IC50 (pIC50) in assay [1] was 7.03; in assay [2], 4.10. For the same compound, in assay [2] (single concentration 50 μM), the inhibition at 50 µM was 44%.
The compound `Clc1ccc(COc2cccc3onc(Nc4cccnc4)c23)cc1` [Scheme I-9, 4-((4-chlorobenzyl)oxy)-N-(pyridin-3-yl)benzo[d]isoxazol-3-amine] had a pIC50 in assay [1] of under 5.00. Moreover, the inhibition at 50 µM in assay [2] (single concentration 50 μM) stood at 5%.
On to `Cc1ccccc1COc1cccc2onc(Nc3cccnc3)c12` [Scheme I-10, 4-((2-methylbenzyl)oxy)-N-(pyridin-3-yl)benzo[d]isoxazol-3-amine], for which, in assay [1], the Selectivity ratio is recorded as 140. Also, the pIC50 in assay [1] is 6.30; in assay [2], 4.15. The inhibition at 50 µM in assay [2] (single concentration 50 μM) worked out at 41%.
`Cc1cccc(COc2cccc3onc(Nc4cccnc4)c23)c1` [Scheme I-11, 4-((3-methylbenzyl)oxy)-N-(pyridin-3-yl)benzo[d]isoxazol-3-amine] showed a pIC50 in assay [1] of 6.72. Besides, in assay [2] (single concentration 50 μM), the inhibition at 50 µM came to 20%.
For the compound `Cc1ccc(COc2cccc3onc(Nc4cccnc4)c23)cc1` [Scheme I-12, 4-((4-methylbenzyl)oxy)-N-(pyridin-3-yl)benzo[d]isoxazol-3-amine], in assay [2] (single concentration 50 μM), the inhibition at 50 µM was determined as 5%.
In assay [1], `FC(F)(F)c1ccccc1COc1cccc2onc(Nc3cccnc3)c12` [Scheme I-13, 4-((2-Trifluoromethylbenzyl)oxy)-N-(pyridin-3-yl)benzo[d]isoxazole-3-amine] gave a pIC50 of 6.59. The inhibition at 50 µM in assay [2] (single concentration 50 μM) worked out at 21%.
In assay [1], `FC(F)(F)c1cccc(COc2cccc3onc(Nc4cccnc4)c23)c1` [Scheme I-14, 4-((3-Trifluoromethylbenzyl)oxy)-N-(pyridin-3-yl)benzo[d]isoxazole-3-amine] gave a pIC50 of 6.31. The inhibition at 50 µM in assay [2] (single concentration 50 μM) came to 25%.
The matching figures for `FC(F)(F)c1ccc(COc2cccc3onc(Nc4cccnc4)c23)cc1` [Scheme I-15, 4-((4-Trifluoromethylbenzyl)oxy)-N-(pyridin-3-yl)benzo[d]isoxazole-3-amine]: under 5.00 and 9%.
For the compound `COc1ccccc1COc1cccc2onc(Nc3cccnc3)c12` [Scheme I-16, 4-((2-Methoxybenzyl)oxy)-N-(pyridin-3-yl)benzo[d]isoxazol-3-amine], in assay [1], the Selectivity ratio stood at 201 and the pIC50 is 6.62. The same compound gave a pIC50 in assay [2] of 4.32. Also, in assay [2] (single concentration 50 μM), the inhibition at 50 µM was 49%.
In the case of `COc1cccc(COc2cccc3onc(Nc4cccnc4)c23)c1` [Scheme I-17, 4-((3-Methoxybenzyl)oxy)-N-(pyridin-3-yl)benzo[d]isoxazol-3-amine], in assay [1], the pIC50 was 6.28. For the same compound, in assay [2] (single concentration 50 μM), the inhibition at 50 µM turned out to be 17%.
Take `COc1ccc(COc2cccc3onc(Nc4cccnc4)c23)cc1` [Scheme I-18, 4-((4-Methoxybenzyl)oxy)-N-(pyridin-3-yl)benzo[d]isoxazol-3-amine]: in assay [2] (single concentration 50 μM), the inhibition at 50 µM was -5%.
As to `FC(F)(F)Oc1ccccc1COc1cccc2onc(Nc3cccnc3)c12` [Scheme I-19, 4-((2-Trifluoromethoxybenzyl)oxy)-N-(pyridin-3-yl)benzo[d]-isoxazol-3-amine], the Selectivity ratio in assay [1] was 726. In addition, the figures for the pIC50 in assay [1] and in assay [2] were 6.97 and 4.17, respectively. Moreover, the inhibition at 50 µM in assay [2] (single concentration 50 μM) was 59%.
Take `N#Cc1ccc(COc2cccc3onc(Nc4cccnc4)c23)cc1` [Scheme I-24, 4-((4-Cyanobenzyl)oxy)-N-(pyridin-3-yl)benzo[d]isoxazol-3-amine]: the inhibition at 50 µM in assay [2] (single concentration 50 μM) was -18%.
Still for that read-out and setting: for `CN(c1cccnc1)c1noc2cccc(OCc3c(Cl)cccc3Cl)c12` [Scheme I-28, 4-((2,6-dichlorobenzyl)oxy)-N-methyl-N-(pyridin-3-yl)benzo[d]isoxazol-3-amine] the value was 29%.
In the case of `c1ccc(COc2cccc3[nH]nc(Nc4cccnc4)c23)cc1` [Scheme I-29, 4-(benzyloxy)-N-(pyridin-3-yl)-1H-indazol-3-amine], the inhibition at 50 µM in assay [2] (single concentration 50 μM) is -7%.
With `Cn1nc(Nc2cccnc2)c2c(OCc3ccccc3)cccc21` [Scheme I-30, 4-(benzyloxy)-1-methyl-N-(pyridin-3-yl)-1H-indazol-3-amine], the inhibition at 50 µM in assay [2] (single concentration 50 μM) turned out to be 1%.
For the compound `c1ccc(COc2cccc3ccnc(Nc4cccnc4)c23)cc1` [Scheme I-32, 8-(benzyloxy)-N-(pyridin-3-yl)isoquinolin-1-amine], the inhibition at 50 µM in assay [2] (single concentration 50 μM) amounted to 18%.
In the case of `CN(C)CC(=O)Nc1noc2cccc(OCc3cc(F)ccc3Cl)c12` [Scheme I-34, N-(4-((2-chloro-5-fluorobenzyl)oxy)benzo[d]isoxazol-3-yl)-2-(dimethylamino)acetamide], in assay [2] (single concentration 50 μM), the inhibition at 50 µM came to 3%.
As to `CC(C)(C)OC(=O)N1CCC(CCCOc2cccc3onc(Nc4cccnc4)c23)CC1` [Scheme I-40, Tert-Butyl 4-(3-((3-(pyridin-3-ylamino)benzo[d]isoxazol-4-yl)oxy)propyl)piperidine-1-carboxylate], in assay [2] (single concentration 50 μM), the inhibition at 50 µM was 9%.

The record behind these values is patent US11396504B2, “Alkoxybenzo-five-membered (six-membered) heterocyclic amine compound and pharmaceutical use thereof” (FUDAN UNIVERSITY, priority 2018, dated 2022).
